Measurements taken from patent US6835754B2, “Use of aryl nitrone compounds in methods for treating neuropathic pain” (Renovis, Inc., priority 2001, dated 2004).

Test system: male Swiss Webster mice, phenylquinone-induced writhing
Assay: Phenylquinone (PQ) writhing assay, % inhibition (Swiss Webster mice)
Type: in vivo
Conditions: Mus musculus, standard, read-out: % Inhibition of Writhing Response

Row | SMILES | inhibition at 3 mg/kg (3 mg/kg) | inhibition at 1 mg/kg (1 mg/kg)
1 | COc1ccc2c(c1)c(CC(=O)O)c(C)n2C(=O)c1ccc(Cl)cc1 [Indomethacin] | 93% | 
2 | C[C@@H]1C[C@H]2[C@@H]3CCC4=CC(=O)C=C[C@]4(C)[C@@]3(F)[C@@H](O)C[C@]2(C)[C@@]1(O)C(=O)CO [Dexamethasone] |  | 62%
